Measured values taken from patent US10899758B2, “Inhibitors of the menin-MLL interaction” (Vitae Pharmaceuticals, LLC, priority 2016, dated 2021).
Where two headings read alike, the source gives them in different places.

Columns and labels:
[1] = target: T1, menin/MLL binding (biotinylated wild-type or mutated menin and MLL-AF9 fusion protein) (Homo sapiens, UniProt O00255); assay: Assay 1 (Binding Assay): AlphaLISA menin/MLL binding; conditions: 5 nM biotinylated menin, MLL-AF9-FLAG lysate
T1 construct: biotinylated (1) wild-type menin or (2) mutated menin (described in Nature (2012) Vol. 482, pp. 542-548); fused on or other part: Biotin attached chemically (Sulfo-NHS-Biotin); no fused second protein is printed for menin
T1 sequence (O00255 1-459 limits assumed): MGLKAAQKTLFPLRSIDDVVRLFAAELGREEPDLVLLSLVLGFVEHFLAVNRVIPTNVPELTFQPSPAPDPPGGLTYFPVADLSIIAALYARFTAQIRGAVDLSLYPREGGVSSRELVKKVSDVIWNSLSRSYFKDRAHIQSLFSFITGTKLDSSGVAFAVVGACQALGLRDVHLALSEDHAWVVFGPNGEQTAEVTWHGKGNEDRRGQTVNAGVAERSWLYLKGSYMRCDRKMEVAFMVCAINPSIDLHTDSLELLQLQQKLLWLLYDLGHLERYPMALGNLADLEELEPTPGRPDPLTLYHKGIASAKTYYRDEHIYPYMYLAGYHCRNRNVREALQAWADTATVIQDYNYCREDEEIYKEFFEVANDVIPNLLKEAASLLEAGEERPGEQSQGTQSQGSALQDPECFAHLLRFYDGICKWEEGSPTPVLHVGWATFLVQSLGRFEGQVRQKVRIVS
Procedure, shortened: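 Biotinylated E. coli-expressed menin (wild-type or mutant), 5 nM, incubated 30 min RT with compound and HEK293 lysate of MLL1-1,396–AF9-FLAG in pH 7.4 Tris buffer, 5% DMSO, 1 mM DTT. Anti-FLAG acceptor and streptavidin donor beads added, 60 min RT, AlphaLISA signal read. IC50 from four-parameter fit of % inhibition.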

[2] = tested on: human acute monocytic leukemia cell line MV-4-11; assay: Assay 2 (Cell Proliferation Assay), ATP quantitation (CellTiter-Glo); assay type: cell-based; conditions: MV-4-11 cells, read-out: Assay 2 (EC50, inhibition of cell proliferation)
Procedure, shortened: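 Cells (1.67×10^4/well, 10% FBS medium) incubated ±compound 72 h at 37 °C, 5% CO2; HL-60 served as toxicity control. ATP read by CellTiter-Glo luminescence; % inhibition scaled between DMSO and a potent menin inhibitor at ≥100×LD50.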

| SMILES | IC50 [1] | EC50 ([2]; Homo sapiens, MV4-11, 72 h) | EC50 ([2]; 72 h) |
| --- | --- | --- | --- |
| CC(C)N(C)C(=O)c1cc(F)ccc1-n1cc(C2CCN(CC3CCOCC3)CC2)c2ccncc21 [Example 4, 5-fluoro-N-isopropyl-N-methyl-2-(3-(1-((tetrahydro-2H-pyran-4-yl)methyl)piperidin-4-yl)-1H-pyrrolo[2,3-c]pyridin-1-yl)benzamide] | < 100 nM | ≥ 1000 nM | – |
| CC(C)N(C)C(=O)c1cc(F)ccc1-n1cc([C@H]2CC[C@@H](N3CCCC(O)C3)CC2)c2ccncc21 (stereo partly drawn) [Example 113, 5-fluoro-2-(3-(cis-4-(3-hydroxypiperidin-1-yl)cyclohexyl)-1H-pyrrolo[2,3-c]pyridin-1-yl)-N-isopropyl-N-methylbenzamide] | < 100 nM | 100 to 1000 nM | – |
| CC(C)N(C)C(=O)c1cc(F)ccc1-n1cc([C@H]2CC[C@@H](N)CC2)c2ccncc21 [Example 58, 2-(3-(cis-4-aminocyclohexyl)-1H-pyrrolo[2,3-c]pyridin-1-yl)-5-fluoro-N-isopropyl-N-methylbenzamide] | 100 to 1000 nM | ≥ 1000 nM | – |
| CC(C)N(C)C(=O)c1cc(F)ccc1-n1cc([C@H]2CC[C@H](N3CCCCC3)CC2)c2ccncc21 [Example 106, 5-fluoro-N-isopropyl-N-methyl-2-(3-(trans-4-(piperidin-1-yl)cyclohexyl)-1H-pyrrolo[2,3-c]pyridin-1-yl)benzamide] | < 100 nM | 100 to 1000 nM | – |
| CC(C)N(C)C(=O)c1cc(F)ccc1-n1cc([C@H]2CC[C@H](N)CC2)c2ccncc21 [Example 57, 2-(3-(trans-4-aminocyclohexyl)-1H-pyrrolo[2,3-c]pyridin-1-yl)-5-fluoro-N-isopropyl-N-methylbenzamide] | < 100 nM | ≥ 1000 nM | – |
| CC(C)N(C)C(=O)c1cc(F)ccc1-n1cc(C2CCN(CCC3CCOCC3)CC2)c2ccncc21 [Example 6, 5-fluoro-N-isopropyl-N-methyl-2-(3-(1-(2-(tetrahydro-2H-pyran-4-yl)ethyl)piperidin-4-yl)-1H-pyrrolo[2,3-c]pyridin-1-yl)benzamide] | < 100 nM | 100 to 1000 nM | – |
| Cc1c(CN2CCC(n3c(=O)n(-c4ccc(F)cc4C(=O)N(C)C(C)C)c4cnccc43)CC2)ccc2[nH]c(C#N)cc12 [Example 82, 2-(1-(1-((2-cyano-4-methyl-1H-indol-5-yl)methyl)piperidin-4-yl)-2-oxo-1,2-dihydro-3H-imidazo[4,5-c]pyridin-3-yl)-5-fluoro-N-isopropyl-N-methylbenzamide] | < 100 nM | < 100 nM | – |
| CS(=O)(=O)N[C@H]1CC[C@H](CCN2CCC(c3cn(-c4ccc(F)cc4OCC4CC4)c4cnccc34)CC2)CC1 [Example 34, N-(trans-4-(2-(4-(1-(2-(cyclopropylmethoxy)-4-fluorophenyl)-1H-pyrrolo[2,3-c]pyridin-3-yl)piperidin-1-yl)ethyl)cyclohexyl)methanesulfonamide] | < 100 nM | 100 to 1000 nM | – |
| CC(C)N(C)C(=O)c1cc(F)ccc1-n1cc(C2CCN(CC[C@H]3CC[C@H](NS(C)(=O)=O)CC3)CC2)c2ccncc21 [Example 19, 5-fluoro-N-isopropyl-N-methyl-2-(3-(1-(2-(trans-4-(methylsulfonamido)cyclohexyl)ethyl)piperidin-4-yl)-1H-pyrrolo[2,3-c]pyridin-1-yl)benzamide] | < 100 nM | < 100 nM | – |
| CC(C)N(C)C(=O)c1cc(F)ccc1-n1cc(C2CCN(CC[C@H]3CC[C@H](NC(=O)OC(C)(C)C)CC3)CC2)c2ccncc21 [Example 18A, tert-butyl (trans-4-(2-(4-(1-(4-fluoro-2-(isopropyl(methyl)carbamoyl)phenyl)-1H-pyrrolo[2,3-c]pyridin-3-yl)piperidin-1-yl)ethyl)cyclohexyl)carbamate] | < 100 nM | 100 to 1000 nM | – |
| CC(C)N(C)C(=O)c1cc(F)ccc1-n1cc(C2CCN(C[C@H]3CC[C@H](O)CC3)CC2)c2ccncc21 [Example 27, trans-(5-fluoro-2-(3-(1-((4-hydroxycyclohexyl)methyl)piperidin-4-yl)-1H-pyrrolo[2,3-c]pyridin-1-yl)-N-isopropyl-N-methylbenzamide)] | < 100 nM | ≥ 1000 nM | – |
| CC(C)N(C)C(=O)c1cc(F)ccc1-n1cc([C@H]2CC[C@H](N3CCC[C@@H]3CO)CC2)c2ccncc21 [Example 100, 5-fluoro-2-(3-(trans-4-((R)-2-(hydroxymethyl)pyrrolidin-1-yl)cyclohexyl)-1H-pyrrolo[2,3-c]pyridin-1-yl)-N-isopropyl-N-methylbenzamide] | < 100 nM | 100 to 1000 nM | – |
| CCN(C(=O)c1cc(F)ccc1-n1cc(C2CCCN(Cc3ccc4[nH]c(=O)[nH]c4c3)C2)c2ccncc21)C(C)C (single isomer, unassigned) [Example 47B] | < 100 nM | – | < 100 nM |
| CC(C)N(C)C(=O)c1cc(F)ccc1-n1cc(C2CCN(Cc3ccc(NS(C)(=O)=O)cc3)CC2)c2ccncc21 [Example 23, 5-fluoro-N-isopropyl-N-methyl-2-(3-(1-(4-(methylsulfonamido)benzyl)piperidin-4-yl)-1H-pyrrolo[2,3-c]pyridin-1-yl)benzamide] | < 100 nM | ≥ 1000 nM | – |
| CCN(C(=O)c1cc(F)ccc1-n1cc([C@@H]2CCCN(Cc3ccc4c(c3)[nH]c(=O)n4CCO)C2)c2ccncc21)C(C)C [Example 49A, (S)-N-ethyl-5-fluoro-2-(3-(1-((1-(2-hydroxyethyl)-2-oxo-2,3-dihydro-1H-benzo[d]imidazol-5-yl)methyl)piperidin-3-yl)-1H-pyrrolo[2,3-c]pyridin-1-yl)-N-isopropylbenzamide] | < 100 nM | < 100 nM | – |
| CC(C)N(C)C(=O)c1cc(F)ccc1-n1cc(C2CCN(Cc3ccc4cc(C#N)[nH]c4c3)CC2)c2ccncc21 [Example 8, 2-(3-(1-((2-cyano-1H-indol-6-yl)methyl)piperidin-4-yl)-1H-pyrrolo[2,3-c]pyridin-1-yl)-5-fluoro-N-isopropyl-N-methylbenzamide] | < 100 nM | < 100 nM | – |
| CCN(C(=O)c1cc(F)ccc1-n1cc(C2CCN(C[C@H]3CC[C@H](NS(C)(=O)=O)CC3)C2)c2ccncc21)C(C)C (stereo partly drawn) [Example 125, N-ethyl-5-fluoro-N-isopropyl-2-(3-(1-((trans-4-(methylsulfonamido)cyclohexyl)methyl)pyrrolidin-3-yl)-1H-pyrrolo[2,3-c]pyridin-1-yl)benzamide] | < 100 nM | < 100 nM | – |
| CC(C)N(C(=O)c1cc(F)ccc1-n1cc(C2CCN(C[C@H]3CC[C@H](NS(C)(=O)=O)CC3)C2)c2ccncc21)C(C)C (stereo partly drawn) [Example 127, 5-fluoro-N,N-diisopropyl-2-(3-(1-((trans-4-(methylsulfonamido)cyclohexyl)methyl)pyrrolidin-3-yl)-1H-pyrrolo[2,3-c]pyridin-1-yl)benzamide] | < 100 nM | < 100 nM | – |
| CCCCCCCCCCCCCCCCCC(=O)OCCn1c(=O)[nH]c2cc(CN3CCC[C@H](c4cn(-c5ccc(F)cc5C(=O)N(C)C(C)C)c5cnccc45)C3)ccc21 [Example 86, (R)-2-(5-((3-(1-(4-fluoro-2-(isopropyl(methyl)carbamoyl)phenyl)-1H-pyrrolo[2,3-c]pyridin-3-yl)piperidin-1-yl)methyl)-2-oxo-2,3-dihydro-1H-benzo[d]imidazol-1-yl)ethyl stearate] | < 100 nM | < 100 nM | – |
| CC(C)N(C)C(=O)c1cc(F)ccc1-n1cc(C2CCN(Cc3ccc4[nH]c(=O)[nH]c4c3)C2)c2ccncc21 (centres unmarked) [Example 122, 5-fluoro-N-isopropyl-N-methyl-2-(3-(1-((2-oxo-2,3-dihydro-1H-benzo[d]imidazol-5-yl)methyl)pyrrolidin-3-yl)-1H-pyrrolo[2,3-c]pyridin-1-yl)benzamide] | < 100 nM | < 100 nM | – |
| CC(C)N(C)C(=O)c1cc(F)ccc1-n1cc(C2CCC(NCc3ccc4[nH]c(=O)[nH]c4c3)CC2)c2ccncc21 (single isomer, unassigned) [Example 60A, 5-fluoro-N-isopropyl-N-methyl-2-(3-(4-(((2-oxo-2,3-dihydro-1H-benzo[d]imidazol-5-yl)methyl)amino)cyclohexyl)-1H-pyrrolo[2,3-c]pyridin-1-yl)benzamide] | < 100 nM | – | ≥ 1000 nM |
| CC(C)N(C)C(=O)c1cc(F)ccc1-n1cc([C@H]2CC[C@H](N3CCC(F)(F)CC3)CC2)c2ccncc21 [Example 110, 2-(3-(trans-4-(4,4-difluoropiperidin-1-yl)cyclohexyl)-1H-pyrrolo[2,3-c]pyridin-1-yl)-5-fluoro-N-isopropyl-N-methylbenzamide] | < 100 nM | 100 to 1000 nM | – |
